Patent US20110009368A1, “SOLID FORMS OF TENOFOVIR DISOPROXIL” (ULTIMORPHIX TECHNOLOGIES B.V., priority 2007, published 2011)
Entries after “also recorded” stand apart in the source; their conditions may differ. Where a name gives a salt, the structure may show the parent alone.

Columns and labels:
[1] = Dynamic Vapour Sorption (DVS) moisture sorption; assay type: physicochemical; settings: for total uptake of water vapours (max water adsorption, hygroscopicity): relative humidity 0% to 95% in steps of 5%, 1 h per step
Procedure: Moisture sorption isotherms were measured using a DVS-1 system of Surface Measurement Systems (London, UK). Differences in moisture uptake of a solid material indicate differences in the relative stabilities of the various solid forms for increasing relative humidity. The experiment was carried out at a constant temperature of 25° C.
A sample of about 15 mg of TDSU ULT-1 was spread in the DVS pan. The sample was dried at 0% RH for 7 h. Subsequently the relative humidity of the chamber was increased in steps of 5% units from 0% to 95% in order to monitor the sorption of water vapours. The samples remained in each of the steps for 1 h. Following, desorption was monitored by decreasing the relative humidity to 0% in steps of 5% units and remaining at each step for 1 h. The graph of sorption-desorption cycle is shown below. […] In a similar DVS experiment using the starting material as purchased, the total vapour intake was about 4%, which is undesirable in formulation and requires additional measures.

[2] = known crystalline form; compared with industry limits; cited from earlier work
[3] = Intrinsic dissolution rate measurement (micro-dissolution, UV); assay type: physicochemical; settings: for Dissolution rate: 20 ml, 100 rpm
Procedure: 20 ml of high pure water was placed in 25 ml vial in the micro-dissolution thermal block by using a 20 ml volumetric pipette. A large cross stirrer was placed to the vial and the solution was stirred at a speed of 100 rpm. The 5 mm path length tip was placed from the top along with the probe connected with DAD (Diode Array Detector) analyzer. The 100% transmittance and dark spectra was collected by using high pure water. In the next step a tablet of 10 mg of Tenofovir disoproxil succinate (TDSU ULT-1) was pressed on tablet machine and placed along with the stirrer in a 25 ml vial in the micro-dissolution thermal block. The probe was placed along with the 5 mm path length tip and 20 ml of high pure water was added to the sample. The solution was stirred with a speed of 100 rpm and absorbance or the optical density was determined with respect to time by UV spectrometer. The intrinsic dissolution rate was determined by plotting concentration versus time and calculating the slope of the curve.
The same experiments were performed in a similar manner in buffered media of pH values of […]. pH buffers for dissolution pH 1.5: USP SGF without pepsin (0.05M sodium chloride adjusted to pH 1.5 with HCl) pH 3.0: 0.05 sodium di-hydrogen phosphate buffer adjusted to […] with NaOH pH 4.5: 0.05M sodium di-hydrogen phosphate buffer adjusted to pH 4.5 with NaOH pH 6.8: USP SIF without pancreatin (0.05M sodium di-hydrogen phosphate buffer adjusted to pH 6.8 with NaOH) pH 7.4: 0.05M sodium di-hydrogen phosphate adjusted to pH 7.4 with NaOH Results of intrinsic dissolution rate measurements

[4] = as above; assay type: physicochemical; settings: 20 ml, 100 rpm
[5] = Stress testing in climatic chamber, physical and chemical stability by XRPD and HPLC; assay type: physicochemical; settings: 40° C. and 75% relative humidity
Procedure: A small quantity (of about 10 milligrams) of TDSU ULT-1 was placed in a Binder climatic chamber KBR115 series for stress testing under 40° C. and 75% relative humidity (RH). The material was checked for physical and chemical stability by XRPD and HPLC respectively in intervals of 2 and 4 weeks. In both cases the material was stable, i.e. no structural change or chemical degradation took place over the tested period.

| Molecule | total uptake of water vapours (max water adsorption, hygroscopicity) ([1]; DVS, 25° C.) | Hygroscopicity [2] | Dissolution rate ([3]; Buffer pH 1.5, 10 mg tablet) | Dissolution rate ([3]; Buffer pH 4.5, 10 mg tablet) | Dissolution rate ([3]; water, 10 mg tablet) | Dissolution rate ([4]; Buffer pH 3.0, 10 mg tablet) | Dissolution rate ([4]; Buffer pH 6.8, 10 mg tablet) | physical and chemical stability (XRPD and HPLC) ([5]; 2 weeks) | physical and chemical stability (XRPD and HPLC) ([5]; 4 weeks) | hygroscopicity (conclusion from DVS data) ([1]; DVS, 25° C., 0% to 95% RH) | structure by XRPD at the end of the DVS experiment ([1]; after sorption-desorption cycle) | dissolving faster compared to TDF 1:1 ([3]; in water and in all media with pH values ranging from 1.5 to 7.4) | Dissolution rate ([4]; Buffer pH 7.4, 10 mg tablet) |
| --- | --- | --- | --- | --- | --- | --- | --- | --- | --- | --- | --- | --- | --- |
| CC(C)OC(=O)OCOP(=O)(CO[C@H](C)Cn1cnc2c(N)ncnc21)OCOC(=O)OC(C)C [TDF 1:1, 9-[(R)-2-[[bis[[(isopropoxycarbonyl)oxy]methoxy]phosphinyl]methoxy]propyl]adenine fumarate (1:1), reference compound] | about 4% | > 4% | 3.29 mgmin−1 cm−2 | 0.99 mgmin−1 cm−2 | 1.12 mgmin−1 cm−2 | 1.36 mgmin−1 cm−2 | 0.98 mgmin−1 cm−2 | – | – | – | – | – | – |
| Tenofovir Disoproxil succinate [TDSU ULT-1] | about 0.3% | – | 10.00 mgmin−1 cm−2 | 3.55 mgmin−1 cm−2 | 1.42 mgmin−1 cm−2 | 1.78 mgmin−1 cm−2 | 1.88 mgmin−1 cm−2 | stable | stable | no hygroscopicity; also recorded: not hygroscopic | no any changes in the structure | up to 3 times | 1.09 mgmin−1 cm−2 |
